Assay results published in ChEMBL document CHEMBL4152351, “Isoxazolo[3,4-d]pyridazinones positively modulate the metabotropic glutamate subtypes 2 and 4” (Bioorg Med Chem, 2018).

Columns and labels:
[1] = biological target: Glutamate [NMDA] receptor; assay: Displacement of [3H]MK-801 from NMDA receptor (unknown origin) after 3 hrs by liquid scintillation counting method; format: protein-complex assay, Homo sapiens
Homo sapiens = organism: Homo sapiens; assay: Displacement of muscimol from GABA-A receptor (unknown origin) after 90 mins by liquid scintillation counting method; set-up: concentration or dose not given beside the values
[2] = biological target: Metabotropic glutamate receptor 5 (Homo sapiens, UniProt P41594); assay: Displacement of MPEP from mGluR5 (unknown origin) after 3 hrs by liquid scintillation counting method
Sequence of Metabotropic glutamate receptor 5 (P41594 whole entry): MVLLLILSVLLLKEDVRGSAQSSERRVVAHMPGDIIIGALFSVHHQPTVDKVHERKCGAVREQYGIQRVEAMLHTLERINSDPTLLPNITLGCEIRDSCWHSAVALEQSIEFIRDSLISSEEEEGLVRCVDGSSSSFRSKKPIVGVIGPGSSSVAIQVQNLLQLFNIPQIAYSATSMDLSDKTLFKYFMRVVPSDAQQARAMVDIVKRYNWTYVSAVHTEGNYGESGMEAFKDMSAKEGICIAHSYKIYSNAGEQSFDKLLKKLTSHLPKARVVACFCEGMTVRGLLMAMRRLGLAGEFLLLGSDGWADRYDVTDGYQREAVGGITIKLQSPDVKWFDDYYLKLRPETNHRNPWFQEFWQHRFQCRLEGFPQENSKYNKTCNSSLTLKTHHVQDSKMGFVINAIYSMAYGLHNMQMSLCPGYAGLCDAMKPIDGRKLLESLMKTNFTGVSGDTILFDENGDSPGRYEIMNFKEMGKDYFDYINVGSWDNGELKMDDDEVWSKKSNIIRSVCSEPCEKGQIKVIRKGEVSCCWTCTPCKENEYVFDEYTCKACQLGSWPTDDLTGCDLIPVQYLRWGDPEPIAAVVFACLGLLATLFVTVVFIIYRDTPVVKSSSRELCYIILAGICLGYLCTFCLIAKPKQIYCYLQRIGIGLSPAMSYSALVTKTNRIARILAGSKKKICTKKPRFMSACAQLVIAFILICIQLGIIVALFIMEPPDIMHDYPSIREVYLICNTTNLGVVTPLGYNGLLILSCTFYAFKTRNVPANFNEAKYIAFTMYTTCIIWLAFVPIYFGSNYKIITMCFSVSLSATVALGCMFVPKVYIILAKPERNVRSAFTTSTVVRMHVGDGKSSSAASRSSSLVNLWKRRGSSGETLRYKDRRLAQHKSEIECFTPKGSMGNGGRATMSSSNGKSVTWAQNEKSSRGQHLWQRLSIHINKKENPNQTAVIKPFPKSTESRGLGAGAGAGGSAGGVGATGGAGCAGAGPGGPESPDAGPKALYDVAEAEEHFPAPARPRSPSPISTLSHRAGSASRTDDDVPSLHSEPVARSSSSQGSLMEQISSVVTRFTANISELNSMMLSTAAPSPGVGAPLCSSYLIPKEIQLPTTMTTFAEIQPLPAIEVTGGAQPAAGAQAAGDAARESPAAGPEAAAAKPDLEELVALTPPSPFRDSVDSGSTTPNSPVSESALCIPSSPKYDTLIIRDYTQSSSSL

[3] = biological target: Metabotropic glutamate receptor 4 (Homo sapiens) (UniProt Q14833); assay: Antagonist activity at Gi-coupled mGluR4 (unknown origin) expressed in CHO cells assessed as decrease in glutamate-induced inhibition of forskolin-stimulated cAMP accumulation after 1 hr by glosensor based luciferase reporter gene assay relative to control; format: functional, cell-based; set-up: concentration or dose not given beside the values; details: concentration not given here
Sequence of Metabotropic glutamate receptor 4 (Homo sapiens) (Q14833 whole entry): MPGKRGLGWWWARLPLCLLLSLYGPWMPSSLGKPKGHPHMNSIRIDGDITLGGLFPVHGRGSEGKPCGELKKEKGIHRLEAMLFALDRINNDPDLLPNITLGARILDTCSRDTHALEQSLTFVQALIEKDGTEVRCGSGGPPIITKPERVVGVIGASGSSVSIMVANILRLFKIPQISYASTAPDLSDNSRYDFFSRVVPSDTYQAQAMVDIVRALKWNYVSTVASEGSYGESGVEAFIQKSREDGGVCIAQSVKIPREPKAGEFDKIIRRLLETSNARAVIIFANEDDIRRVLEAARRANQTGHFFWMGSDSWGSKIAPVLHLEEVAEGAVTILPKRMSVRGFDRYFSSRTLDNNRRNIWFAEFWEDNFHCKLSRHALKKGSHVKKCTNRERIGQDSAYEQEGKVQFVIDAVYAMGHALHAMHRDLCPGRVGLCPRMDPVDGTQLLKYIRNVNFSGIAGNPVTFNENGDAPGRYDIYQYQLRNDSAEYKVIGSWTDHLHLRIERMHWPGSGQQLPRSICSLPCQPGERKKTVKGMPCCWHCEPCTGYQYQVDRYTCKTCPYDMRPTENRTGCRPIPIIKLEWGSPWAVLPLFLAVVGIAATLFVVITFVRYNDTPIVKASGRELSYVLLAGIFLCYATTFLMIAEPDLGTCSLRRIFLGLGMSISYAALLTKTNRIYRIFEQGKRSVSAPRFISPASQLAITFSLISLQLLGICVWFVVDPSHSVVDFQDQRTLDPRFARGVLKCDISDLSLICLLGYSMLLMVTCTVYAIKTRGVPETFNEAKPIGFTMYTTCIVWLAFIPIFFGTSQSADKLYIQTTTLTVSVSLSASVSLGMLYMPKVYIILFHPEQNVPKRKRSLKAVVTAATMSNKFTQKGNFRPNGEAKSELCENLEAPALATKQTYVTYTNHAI

[4] = biological target: Metabotropic glutamate receptor 2 (Homo sapiens) (UniProt Q14416); assay: Antagonist activity at Gi-coupled mGluR2 (unknown origin) expressed in CHO cells assessed as decrease in glutamate-induced inhibition of forskolin-stimulated cAMP accumulation after 1 hr by glosensor based luciferase reporter gene assay relative to control; format: functional, cell-based; set-up: concentration or dose not given beside the values; details: concentration not given here
Sequence of Metabotropic glutamate receptor 2 (Homo sapiens) (Q14416 19-872 limits assumed): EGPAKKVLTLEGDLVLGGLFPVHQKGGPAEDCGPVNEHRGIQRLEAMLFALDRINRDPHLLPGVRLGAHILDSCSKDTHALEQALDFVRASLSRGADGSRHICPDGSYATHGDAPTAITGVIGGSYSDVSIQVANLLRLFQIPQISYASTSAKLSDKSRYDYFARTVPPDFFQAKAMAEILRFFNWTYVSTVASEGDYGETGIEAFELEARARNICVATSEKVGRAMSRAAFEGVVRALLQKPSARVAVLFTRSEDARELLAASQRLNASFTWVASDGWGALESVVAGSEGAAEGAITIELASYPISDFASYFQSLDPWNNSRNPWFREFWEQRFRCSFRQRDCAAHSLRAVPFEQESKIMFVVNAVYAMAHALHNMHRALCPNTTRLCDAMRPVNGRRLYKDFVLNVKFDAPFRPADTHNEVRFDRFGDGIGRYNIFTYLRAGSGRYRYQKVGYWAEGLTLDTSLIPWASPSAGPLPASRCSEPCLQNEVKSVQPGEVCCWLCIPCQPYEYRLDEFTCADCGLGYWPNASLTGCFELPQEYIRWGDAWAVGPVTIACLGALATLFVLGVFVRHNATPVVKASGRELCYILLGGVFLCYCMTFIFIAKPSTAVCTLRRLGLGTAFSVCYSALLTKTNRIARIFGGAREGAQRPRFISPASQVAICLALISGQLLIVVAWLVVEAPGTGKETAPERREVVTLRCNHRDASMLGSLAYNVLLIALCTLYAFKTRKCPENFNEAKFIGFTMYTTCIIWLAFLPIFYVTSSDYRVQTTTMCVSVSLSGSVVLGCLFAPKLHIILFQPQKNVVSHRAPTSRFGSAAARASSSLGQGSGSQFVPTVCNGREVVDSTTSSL

Row | Ki [1] [µM] | inhibition (Homo sapiens) [%] | Ki [2] [µM] | inhibition [3] [%] | inhibition [4] [%] | Compound
1 | > 10 | -6 | > 10 | -5 | – | Cc1nn(-c2ccccc2)c(=O)c2nocc12
2 | > 10 | -7.8 | 3.08 | -6 | 11 | Cc1nn(-c2cc(Cl)cc(Cl)c2)c(=O)c2nocc12
3 | > 10 | -4.7 | > 10 | -3 | 5 | Cc1nn(-c2ccc([N+](=O)[O-])cc2)c(=O)c2nocc12
4 | > 10 | – | > 10 | 9 | – | COc1ccc(-n2nc(C)c3conc3c2=O)cc1
5 | > 10 | -6 | > 10 | 3 | 23 | Cc1nn(-c2ccc(F)cc2)c(=O)c2nocc12
6 | > 10 | -10 | > 10 | -7 | – | Cc1nn(-c2ccc(F)cc2F)c(=O)c2nocc12
7 | > 10 | -7.2 | – | 11 | 0 | Cc1nn(-c2cc(C(F)(F)F)cc(C(F)(F)F)c2)c(=O)c2nocc12
8 | > 10 | – | > 10 | -10 | 48 | Cc1nn(-c2cccc([N+](=O)[O-])c2)c(=O)c2nocc12
9 | – | – | 0.033 | – | – | CN1CC(=O)N=C1NC(=O)Nc1cccc(Cl)c1 [FENOBAM ANHYDROUS]
10 | > 10 | – | 1.88 | -9 | – | Cc1ccc(-n2nc(C)c3conc3c2=O)cc1
